According to US11208446B2, “Agents and methods for treating CBP-dependent cancers” (priority 2016, dated 2021):

How the values were obtained:
MV411 cells = test: Flow cytometric analysis of apoptosis (Annexin-V); format: cell-based, human; settings: 20 μM, 24 hours
Experimental: Flow cytometric analysis of Apoptosis. Cells were resuspended to a concentration of 1×10^6 cells were plated in triplicate in a 12-well tissue culture plate. For assessment of annexin V staining, cells were washed with PBS and then resuspended in PBS with Annexin V-APC (BioLegend) and propidium iodide at a dilution of 1:1000. For intracellular detection of cleaved caspase 3, cells were fixed and permeabilized using the BD Cytofix/Cytoperm Fixation/Permeabilization solution according to the manufacturer's instructions (BD Biosciences. Cells were then stained using the Alexa Fluor 647-conjugated anti-active caspase-3 (BD Biosciences) at a dilution of 1:50. Cells were incubated for 30 minutes room temperature in the dark, washed, and then analyzed using the BD LSRFortessa cell analyzer.

MYB:CBP complex = target: T1, MYB:CBP complex (Homo sapiens, UniProt Q92793); test: Dissociation of MYB:CBP complex in AML cells (co-immunoprecipitation); format: cell-based
T1 construct: endogenous in cells; host or cells: MV411 human AML cells
Experimental: Co-immunoprecipitation analysis. 7.5 μg of indicated antibodies were conjugated to 1 mg M-270 Epoxy-coated magnetic beads (Invitrogen) according to manufacturer's instructions. 1×10^7 MV411 cells were collected and washed in cold PBS. Washed cell pellets were resuspended in 350 μL cold lysis buffer (50 mM Tris-HCl pH 7.4, 150 mM NaCl, 1 mM EDTA, 1 mM DTT, 0.5% Triton X-100, supplemented with protease inhibitors described above) and incubated on ice for 10 min. Cells were mechanically disrupted using the Covaris […] adaptive focused sonicator at 50 W peak power, 10% duty cycle, 200 cycles per burst at 4° C. for 300 sec. Lysate was clarified by centrifugation for 15 min at 18,000×g at 4° C. Supernatant (cleared lysate) was diluted in 1.05 mL dilution buffer (50 mM Tris-HCl, 150 mM NaCl, 1 mM EDTA, 1 mM DTT, 10% glycerol, supplemented with protease inhibitors described above for a total volume of 1.4 mL. Diluted lysate was added to 1 mg beads, and immunoprecipitation proceeded for 3 h at 4° C. with rotation. Beads were then washed with lysis buffer twice. Proteins were eluted in 20 μL EB buffer (Invitrogen) for 5 min at room temperature, and eluate was neutralized with 2 μL 1M Tris pH 11. Samples were prepared for Western blot by addition of Laemmli buffer with 50 mM DTT and incubation at 95° C. for 5 min. Presence of MYB and CBP was identified by Western blot as described above.

T1 sequence (Q92793 2-2442 limits assumed, one chain of several): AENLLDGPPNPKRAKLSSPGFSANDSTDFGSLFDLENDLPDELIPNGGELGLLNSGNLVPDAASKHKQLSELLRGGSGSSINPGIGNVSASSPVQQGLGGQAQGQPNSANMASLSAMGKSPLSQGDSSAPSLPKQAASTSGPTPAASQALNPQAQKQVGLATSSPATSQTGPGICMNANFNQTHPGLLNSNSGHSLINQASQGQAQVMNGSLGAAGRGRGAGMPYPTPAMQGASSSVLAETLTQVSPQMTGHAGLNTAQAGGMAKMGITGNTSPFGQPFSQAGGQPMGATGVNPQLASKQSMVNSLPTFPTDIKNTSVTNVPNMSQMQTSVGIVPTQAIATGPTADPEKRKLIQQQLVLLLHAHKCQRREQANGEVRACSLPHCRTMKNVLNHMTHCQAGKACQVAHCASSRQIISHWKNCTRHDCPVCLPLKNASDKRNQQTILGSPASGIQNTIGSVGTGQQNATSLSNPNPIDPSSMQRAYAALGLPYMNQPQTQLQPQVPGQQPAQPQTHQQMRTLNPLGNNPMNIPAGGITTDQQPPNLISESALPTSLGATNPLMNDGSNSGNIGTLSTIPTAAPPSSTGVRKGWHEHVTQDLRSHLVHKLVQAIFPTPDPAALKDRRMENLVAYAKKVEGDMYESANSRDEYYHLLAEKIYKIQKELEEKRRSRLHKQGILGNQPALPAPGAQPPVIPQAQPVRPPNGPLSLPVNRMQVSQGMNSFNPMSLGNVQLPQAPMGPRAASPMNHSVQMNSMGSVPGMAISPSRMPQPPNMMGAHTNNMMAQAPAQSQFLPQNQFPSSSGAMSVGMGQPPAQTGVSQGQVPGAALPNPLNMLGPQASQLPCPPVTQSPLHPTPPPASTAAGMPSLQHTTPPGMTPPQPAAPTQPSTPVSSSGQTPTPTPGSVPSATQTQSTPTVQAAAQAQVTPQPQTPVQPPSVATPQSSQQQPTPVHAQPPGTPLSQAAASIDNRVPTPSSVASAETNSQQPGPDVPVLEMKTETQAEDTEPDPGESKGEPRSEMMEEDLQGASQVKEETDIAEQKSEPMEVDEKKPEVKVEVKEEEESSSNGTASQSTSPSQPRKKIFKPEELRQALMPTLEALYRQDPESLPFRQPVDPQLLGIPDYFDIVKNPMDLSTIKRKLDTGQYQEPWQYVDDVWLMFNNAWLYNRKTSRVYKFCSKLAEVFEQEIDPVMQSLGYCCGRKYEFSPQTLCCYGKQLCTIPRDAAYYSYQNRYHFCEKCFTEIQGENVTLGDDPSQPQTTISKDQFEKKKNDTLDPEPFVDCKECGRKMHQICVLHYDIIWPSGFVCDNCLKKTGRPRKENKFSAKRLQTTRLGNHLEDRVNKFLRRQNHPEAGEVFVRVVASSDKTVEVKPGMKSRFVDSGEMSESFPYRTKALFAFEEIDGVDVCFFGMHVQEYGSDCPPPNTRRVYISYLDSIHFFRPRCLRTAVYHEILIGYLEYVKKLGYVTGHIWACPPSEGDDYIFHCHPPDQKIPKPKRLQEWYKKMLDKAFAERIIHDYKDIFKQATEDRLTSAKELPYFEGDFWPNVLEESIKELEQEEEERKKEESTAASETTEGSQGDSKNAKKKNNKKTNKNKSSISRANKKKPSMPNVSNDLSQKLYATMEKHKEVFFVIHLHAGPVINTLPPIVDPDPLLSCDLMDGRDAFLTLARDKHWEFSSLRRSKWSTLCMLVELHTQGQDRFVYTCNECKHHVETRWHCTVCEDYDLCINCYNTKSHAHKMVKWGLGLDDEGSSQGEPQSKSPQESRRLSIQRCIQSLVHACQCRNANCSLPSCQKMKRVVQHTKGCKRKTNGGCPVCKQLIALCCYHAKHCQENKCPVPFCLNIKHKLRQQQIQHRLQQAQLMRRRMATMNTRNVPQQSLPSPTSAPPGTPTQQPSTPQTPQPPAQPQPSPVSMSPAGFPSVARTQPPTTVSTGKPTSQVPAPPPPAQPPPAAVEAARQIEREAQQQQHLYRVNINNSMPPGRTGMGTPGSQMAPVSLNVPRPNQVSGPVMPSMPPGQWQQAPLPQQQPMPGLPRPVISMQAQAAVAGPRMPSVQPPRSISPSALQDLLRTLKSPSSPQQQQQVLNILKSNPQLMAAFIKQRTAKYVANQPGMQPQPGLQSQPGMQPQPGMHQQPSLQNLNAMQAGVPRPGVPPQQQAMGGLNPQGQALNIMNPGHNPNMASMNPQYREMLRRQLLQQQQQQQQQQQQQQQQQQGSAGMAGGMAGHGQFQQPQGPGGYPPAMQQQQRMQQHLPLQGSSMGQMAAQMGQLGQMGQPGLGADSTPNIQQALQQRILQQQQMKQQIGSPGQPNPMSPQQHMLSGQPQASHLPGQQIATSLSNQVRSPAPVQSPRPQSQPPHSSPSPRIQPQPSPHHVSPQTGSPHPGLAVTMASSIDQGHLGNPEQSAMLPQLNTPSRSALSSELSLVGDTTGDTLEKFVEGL

CC[C@@H](C)[C@@H](NC(=O)[C@@H](CCCCN)NC(=O)[C@@H](CCC(=O)O)NC(=O)[C@@H](CC(C)C)NC(=O)[C@@H](CCC(=O)O)NC(=O)[C@@H](CC(C)C)NC(=O)[C@@H](CC(C)C)NC(=O)[C@@H](CC(C)C)NC(=O)[C@@H](CCSC)NC(=O)[C@@H](CO)NC(=O)[C@H](NC(=O)[C@@H](CCC(=O)O)NC(=O)[C@@H](CC(N)=O)NC(=O)[C@@H](CCC(=O)O)NC(=O)[C@@H](CC(C)C)NC(=O)[C@@H](CCCCN)NC(C)=O)[C@H](C)O)C(=O)N[C@H](CCCNC(=N)N)C(=O)N[C@H](CCCCN)C(=O)NCC(=O)NCC(=O)N[C@H](CCCNC(=N)N)C(=O)N[C@H](CCCNC(=N)N)C(=O)N[C@H](CCCNC(=N)N)C(=O)N[C@H](CCC(N)=O)C(=O)N[C@H](CCCNC(=N)N)C(=O)N[C@H](CCCNC(=N)N)C(=O)N[C@H](CCCCN)C(=O)N[C@H](CCCCN)C(=O)N[C@H](CCCNC(=N)N)C(=O)NCC(=O)N[C@H](Cc1ccc(O)cc1)C(N)=O [MYBMIM]
apoptosis (Annexin-V staining) (MV411 cells): induction of apoptosis
MYB:CBP complex in cells (MYB:CBP complex): displacement and dissociation of MYB:CBP complex
